Source: PubChem BioAssay AID298 (DTP/NCI, 2004)
Several values for one entry are separate records, joined by “and”; a condition that tells them apart may be missing. Equal values may be shown once. Records with an inconclusive call do not appear.

Test system: MX-1 breast xenograft, intrarenal, nude mice, tumor weight
Assay: NCI In Vivo Anticancer Drug Screen. Data for tumor model Human Mammary Carcinoma MX-1 Xenograft (intrarenal inoculation) in NU/NU BALB/C (nude) mice
Settings: endpoint: mean tumor weight change, higher = larger tumour
Summary of the method: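 T/C readout: treated-group measurement over vehicle-control measurement, using tumor size or survival in tumor-bearing mice.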

[1] = dose: 600.0 mg/kg/injection, schedule: Q04DX003 (sc), vehicle: saline
[2] = dose: 300.0 mg/kg/injection, schedule: Q04DX003 (ip), vehicle: Klucel (hydroxypropylcellulose) (HPC)
[3] = dose: 100.0 mg/kg/injection, schedule: Q04DX003 (ip), vehicle: Klucel (hydroxypropylcellulose) (HPC)
[4] = dose: 200.0 mg/kg/injection, schedule: Q04DX003 (ip), vehicle: Klucel (hydroxypropylcellulose) (HPC)
[5] = dose: 50.0 mg/kg/injection, schedule: Q04DX003 (ip), vehicle: Klucel (hydroxypropylcellulose) (HPC)

In the case of `C=CCCC(=O)CCCC(=O)O[C@@H]1[C@@H]2[C@H](CC1(C)C)[C@H](O)[C@@]13O[C@@H]1[C@H](O)[C@@]1(CO1)[C@@]23C`, the T/C (dose: 0.4 mg/kg/injection, schedule: Q04DX003 (ip), vehicle: Klucel (hydroxypropylcellulose) (HPC)) is reported as 79 % of control, the T/C (dose: 0.8 mg/kg/injection, schedule: Q04DX003 (ip), vehicle: Klucel (hydroxypropylcellulose) (HPC)) is reported as 82 % of control and the T/C (dose: 1.6 mg/kg/injection, schedule: Q04DX003 (ip), vehicle: Klucel (hydroxypropylcellulose) (HPC)) is reported as 92 % of control. The T/C (dose: 3.2 mg/kg/injection, schedule: Q04DX003 (ip), vehicle: Klucel (hydroxypropylcellulose) (HPC)) was 81 % of control, the T/C (dose: 100.0 micrograms/kg/injection, schedule: Q04DX003 (ip), vehicle: Klucel (hydroxypropylcellulose) (HPC)) was 120 % of control and the T/C (dose: 200.0 micrograms/kg/injection, schedule: Q04DX003 (ip), vehicle: Klucel (hydroxypropylcellulose) (HPC)) was 97 % of control. The T/C (dose: 400.0 micrograms/kg/injection, schedule: Q04DX003 (ip), vehicle: Klucel (hydroxypropylcellulose) (HPC)) was 89 % of control and the T/C (dose: 800.0 micrograms/kg/injection, schedule: Q04DX003 (ip), vehicle: Klucel (hydroxypropylcellulose) (HPC)) was 121 % of control.
`Cc1noc2nc(-c3ccccc3)cc(N3CCN(C)CC3)c12` was tested, and the T/C (dose: 75.0 mg/kg/injection, schedule: Q04DX003 (ip), vehicle: other) was 83 % of control, the T/C (dose: 150.0 mg/kg/injection, schedule: Q04DX003 (ip), vehicle: other) was 120 % of control and the T/C (dose: 300.0 mg/kg/injection, schedule: Q04DX003 (ip), vehicle: other) was 92 % of control.
With `CCC(NC(N)=O)C(CC)NC(N)=O` (centres undefined) the T/C (dose: 6.25 mg/kg/injection, schedule: Q04DX003 (ip), vehicle: saline with Tween-80) was 89 % of control, the T/C (dose: 12.5 mg/kg/injection, schedule: Q04DX003 (ip), vehicle: saline with Tween-80) was 78 % of control and the T/C (dose: 25.0 mg/kg/injection, schedule: Q04DX003 (ip), vehicle: saline with Tween-80) was 74 % of control.
With `COc1cccc2c1C(=O)c1c(O)c3c(c(O)c1C2=O)C[C@](O)(C(=O)CO)CC3OC1CC(N)C(OC2CCCCO2)C(C)O1` (some centres undefined) the T/C (dose: 7.5 mg/kg/injection, schedule: Q04DX003 (ip), vehicle: water) was 21 % of control.
For `CCCCCCSc1nc(COC(=O)NC)c(COC(=O)NC)n1C`, the T/C (dose: 33.7 mg/kg/injection, schedule: Q04DX003 (ip), vehicle: saline) was 100 % of control and the T/C (dose: 135.0 mg/kg/injection, schedule: Q04DX003 (ip), vehicle: saline) was 23 % of control.
`[Cl][Sn]([c]1ccccc1)[c]1ccccc1` was tested, and the T/C (dose: 300.0 mg/kg/injection, schedule: Q04DX003 (sc), vehicle: saline) was 104 % of control, the T/C [1] was 86 % of control and the T/C (dose: 1200.0 mg/kg/injection, schedule: Q04DX003 (sc), vehicle: saline) was 55 % of control. For the same compound, the T/C (dose: 2400.0 mg/kg/injection, schedule: Q04DX003 (sc), vehicle: saline) was 66 % of control.
With `C[C@]12CCC(=O)C(O)=C1CC[C@@H]1[C@@H]2CC[C@]2(C)C(=O)CC[C@@H]12` the T/C (dose: 150.0 mg/kg/injection, schedule: Q04DX003 (ip), vehicle: Klucel (hydroxypropylcellulose) (HPC)) was 101 % of control, the T/C [2] was 96 % of control and the T/C (dose: 600.0 mg/kg/injection, schedule: Q04DX003 (ip), vehicle: Klucel (hydroxypropylcellulose) (HPC)) was 122 % of control. For the same compound, the T/C (dose: 1200.0 mg/kg/injection, schedule: Q04DX003 (ip), vehicle: Klucel (hydroxypropylcellulose) (HPC)) was 113 % of control.
In the case of `CNCCN=c1ccc2c3c1c(O)c1c(O)ccc(=O)c1c3[nH]n2CCNCCO`, the T/C (dose: 1.56 mg/kg/injection, schedule: Q04DX003 (ip), vehicle: water) is reported as 7 % of control and 17 % of control and 26 % of control and the T/C (dose: 3.12 mg/kg/injection, schedule: Q04DX003 (ip), vehicle: water) is reported as 1 % of control and 5 % of control and 8 % of control.
For `COc1c2c(c(O)c3c4c(c(C)cc13)C1OC3(C(OC)OC5CC(C)(O)C(OC6CC(C)(O)C(O)C(C)O6)C(C)O5)OC1C(OC)(O4)C31CO1)C(=O)C(O)CC2OC1CC(C)(O)C(OC(C)=O)C(C)O1` (centres undefined), the T/C (dose: 0.06 mg/kg/injection, schedule: Q04DX003 (ip), vehicle: saline) was 61 % of control and the T/C (dose: 0.5 mg/kg/injection, schedule: Q04DX003 (ip), vehicle: saline) was 45 % of control.
`NC(=O)SCC(N)C(=O)O` (centres undefined) was tested, and the T/C (dose: 300.0 mg/kg/injection, schedule: Q04DX003 (ip), vehicle: saline) was 88 % of control, the T/C (dose: 400.0 mg/kg/injection, schedule: Q04DX003 (sc), vehicle: saline) was 49 % of control and the T/C (dose: 600.0 mg/kg/injection, schedule: Q04DX003 (ip), vehicle: saline) was 80 % of control. The T/C [1] was 37 % of control and 52 % of control, the T/C (dose: 750.0 mg/kg/injection, schedule: Q04DX003 (sc), vehicle: saline) was 53 % of control and the T/C (dose: 900.0 mg/kg/injection, schedule: Q04DX003 (sc), vehicle: saline) was 16 % of control and 38 % of control.
`N=C(N)c1ccc(Nc2ccc(-c3cc4ccc(C(=N)N)cc4[nH]3)cc2)cc1` was tested, and the T/C (dose: 3.75 mg/kg/injection, schedule: Q04DX003 (ip), vehicle: saline) was 84 % of control, the T/C (dose: 7.5 mg/kg/injection, schedule: Q04DX003 (ip), vehicle: saline) was 69 % of control and the T/C (dose: 15.0 mg/kg/injection, schedule: Q04DX003 (ip), vehicle: saline) was 62 % of control.
`O=c1c(O)c(O)c1=O.[NH2-].[NH2-].[NH2-].[NH2-].[NH2-].[Ru+5]` was tested, and the T/C (dose: 12.5 mg/kg/injection, schedule: Q04DX003 (ip), vehicle: suspension in saline) was 98 % of control, the T/C (dose: 25.0 mg/kg/injection, schedule: Q04DX003 (ip), vehicle: suspension in saline) was 74 % of control and the T/C (dose: 50.0 mg/kg/injection, schedule: Q04DX003 (ip), vehicle: suspension in saline) was 60 % of control.
With `CCOC(=O)c1c[nH]c2ccc3c(nc(C)n3C)c2c1=O` the T/C [3] was 122 % of control, the T/C [4] was 122 % of control and the T/C (dose: 400.0 mg/kg/injection, schedule: Q04DX003 (ip), vehicle: Klucel (hydroxypropylcellulose) (HPC)) was 94 % of control. For the same compound, the T/C (dose: 800.0 mg/kg/injection, schedule: Q04DX003 (ip), vehicle: Klucel (hydroxypropylcellulose) (HPC)) was 77 % of control.
With `Cc1c(O)/c(=C\O)c2nc3c(=O)ccc(C(=O)NCCN(C)C)c3[nH]c2c1=O` the T/C (dose: 50.0 mg/kg/injection, schedule: Q04DX003 (ip), vehicle: other) was 77 % of control, the T/C (dose: 100.0 mg/kg/injection, schedule: Q04DX003 (ip), vehicle: other) was 100 % of control and the T/C (dose: 200.0 mg/kg/injection, schedule: Q04DX003 (ip), vehicle: other) was 44 % of control.
With `CNc1n[n+](-c2ccccc2)no1` the T/C (dose: 18.25 mg/kg/injection, schedule: Q04DX003 (sc), vehicle: water) was 88 % of control, the T/C (dose: 37.5 mg/kg/injection, schedule: Q04DX003 (sc), vehicle: water) was 81 % of control and the T/C (dose: 75.0 mg/kg/injection, schedule: Q04DX003 (sc), vehicle: water) was 91 % of control.
`C=Cc1cc(OC)c2c(c1)c(=O)oc1c2cc(OC)c2c(O)ccc(C3OC(C(C)O)C(O)C3O)c21` (centres undefined) was tested, and the T/C (dose: 37.5 mg/kg/injection, schedule: Q04DX003 (ip), vehicle: Klucel (hydroxypropylcellulose) (HPC)) was 91 % of control, the T/C (dose: 75.0 mg/kg/injection, schedule: Q04DX003 (ip), vehicle: Klucel (hydroxypropylcellulose) (HPC)) was 51 % of control and 70 % of control and the T/C [2] was 28 % of control and 29 % of control.
`CC1=C/C(O)CC(=O)Cc2nc(co2)C(=O)N2CCC=C2C(=O)OC(C(C)C)C(C)/C=C\C(=O)NC/C=C\1` (centres undefined) was tested, and the T/C (dose: 600.0 mg/kg/injection, schedule: Q04DX003 (sc), vehicle: Klucel (hydroxypropylcellulose) (HPC)) was 104 % of control, the T/C (dose: 1200.0 mg/kg/injection, schedule: Q04DX003 (sc), vehicle: Klucel (hydroxypropylcellulose) (HPC)) was 92 % of control and the T/C (dose: 2400.0 mg/kg/injection, schedule: Q04DX003 (sc), vehicle: Klucel (hydroxypropylcellulose) (HPC)) was 88 % of control.
In the case of `COc1cc([C@@H]2c3cc4c(cc3[C@@H](OC3OC5CO[C@@H](c6cccs6)OC5C(O)C3O)[C@H]3COC(=O)[C@H]23)OCO4)cc(OC)c1O` (some centres undefined), the T/C (dose: 8.75 mg/kg/injection, schedule: Q01DX010 (ip), vehicle: saline) is reported as 82 % of control and the T/C (dose: 17.5 mg/kg/injection, schedule: Q01DX010 (ip), vehicle: saline) is reported as 74 % of control.
In the case of `N#CC(C#N)=NNc1ccc2cn[nH]c2c1`, the T/C (dose: 12.5 mg/kg/injection, schedule: Q04DX003 (ip), vehicle: Klucel (hydroxypropylcellulose) (HPC)) is reported as 94 % of control, the T/C [5] is reported as 174 % of control and the T/C [3] is reported as 106 % of control.
In the case of `O=S(=O)(c1cccc(N=C=S)c1)c1cccc(N=C=S)c1`, the T/C [5] is reported as 121 % of control, the T/C [3] is reported as 83 % of control and the T/C [4] is reported as 82 % of control.
In the case of `CCOC(=O)Nc1cc2c(c(N)n1)N=C(c1ccccc1)CO2`, the T/C (dose: 150.0 mg/kg/injection, schedule: Q04DX003 (ip), vehicle: saline with Tween-80) is reported as 73 % of control, the T/C (dose: 300.0 mg/kg/injection, schedule: Q04DX003 (ip), vehicle: saline with Tween-80) is reported as 80 % of control and the T/C (dose: 600.0 mg/kg/injection, schedule: Q04DX003 (ip), vehicle: saline with Tween-80) is reported as 51 % of control. The T/C (dose: 1200.0 mg/kg/injection, schedule: Q04DX003 (ip), vehicle: saline with Tween-80) was 68 % of control.
